Reference: patent US9790496B2, “Microrna compounds and methods for modulating MIR-21 activity” (Regulus Therapeutics, Inc., priority 2011, dated 2017)
Values joined by “and” are separate entries in the source; they are usually repeats but may differ in a detail not shown here. Equal values may be shown once. Strand notation (5' to 3'): a small letter for the sugar, then the base; units joined by * are phosphorothioate-linked, units joined directly phosphodiester-linked; [ ] holds rarer units or linkages, { } end groups; capitals alone tell only the bases. e = 2'-O-(2-methoxyethyl) (MOE); f = 2'-fluoro

Key:
[1] = tested on: ischemia reperfusion injury/nephrectomy (IR/Nx) model; assay: Ischemia reperfusion injury/nephrectomy (IR/Nx) model: urinary albumin to creatinine ratio; assay type: in vivo, mouse; settings: s.c. 20 mg/kg on days 2, 3, 4, 8, urine day 9, PBS control 127, nephrectomy-only 16
From the text: An ischemia reperfusion injury/nephrectomy (IR/Nx) model is created in the mouse through temporary unilateral clamping of an artery in one kidney, which leads to tubule damage, inflammation, and fibrosis, followed by removal of the second kidney at a later timepoint. In this model, the acute kidney dysfunction phase is useful to test candidate agents for the treatment of acute kidney injury (i.e. up to about the first 5 days), and the later phases of kidney dysfunction are useful to model chronic fibrosis (i.e. after about the first 5 days).
Anti-miR-21 compounds were tested in the IR/Nx model. 25109, a 6-base mismatch to miR-21, was used as a control compound ([…]; where nucleosides not followed by a subscript indicate β-deoxynucleosides; nucleosides followed by a subscript “E” indicate 2′-MOE nucleosides; nucleosides followed by a subscript “S” indicate S-cEt nucleosides; and all internucleoside linkages are phosphorothioate internucleoside linkages).
Unilateral IR was induced for a period of 30 minutes. Treatment groups were as follows: sham IR procedure; IR with PBS administered subcutaneously; IR with mismatched control 25109 administered subcutaneously at a dose of 20 mg/kg; IR with anti-miR-21 compound 25070 administered subcutaneously at a dose of 20 mg/kg; and IR with anti-miR-21 compound 25923 administered subcutaneously at a dose of 20 mg/kg. PBS or anti-miR was administered on days 2, 3, 4, and 8 following IR. On day 8, the healthy kidney was removed by nephrectomy from each animal, and animals were sacrificed on day 9. Just prior to sacrifice, urine was collected by direct bladder puncture.
Urinary albumin to creatinine ratio was measured in the urine from each mouse. […] The geometric mean of the albumin to creatinine ratio in each group of mice was 16 μgAlb/mgCr (nephrectomy-only control), 127 μgAlb/mgCr (IR/Nx, PBS control), 140 μgAlb/mgCr (IR/Nx, 25109 control), 40 μgAlb/mgCr (IR/Nx, 25070), and 31 μgAlb/mgCr (IR/Nx, 25923). Blood urea nitrogen and serum creatinine levels were similar across all IR/Nx mice, and were elevated relative to nephrectomy-only control mice (data not shown).

[2] = Ex vivo liver homogenate stability assay (HPLC-TOF MS)
miR-21 = miR-21 luciferase sensor assay in Hela cells; assay type: cell-based; settings: Hela cells
Protocol: The compounds were assessed for miR-21 inhibitory activity in a luciferase assay. A microRNA luciferase sensor construct was engineered using pGL3-MCS2 (Promega). The construct was introduced into Hela cells to test the ability of anti-miR compounds to inhibit activity of miR-21. In this assay, miR-21 present in the Hela cells binds to its cognate site(s) in the luciferase sensor construct, and suppresses luciferase expression. When the appropriate anti-miR is introduced into the cells, it binds to miR-21 and relieves suppression of luciferase expression. Thus, in this assay anti-miRs that are effective inhibitors of miR-21 expression will cause an increase in luciferase expression.
Day 1: Hela cells (ATCC), stably transfected with a luciferase construct engineered to contain a sequence complementary of miR-21, were seeded in T-170 flasks (BD Falcon) at 3.5*10^6 cells/flask. Hela cells were grown in Dulbecco's Modified Eagle Medium with High Glucose (Invitrogen).
Day 2: Each flask of Hela cells was transfected with 0.5 ug of a phRL sensor plasmid (Promega) expressing Renilla to be used in normalization. Hela cells were transfected using 20 ul Lipofectamine 2000/flask (Invitrogen). After 4 hours of transfection, cells were washed with PBS and trypsinized. Hela cells were plated at 40 k/well in 24 well plates (BD Falcon) and left overnight.
Day 3: Hela cells were transfected with anti-miRs using Lipofectin (Invitrogen) at 2.5 ul Lipofectin/100 nM ASO/ml Opti-MEM I Reduced Serum Medium (Invitrogen) for 4 hours. After ASO transfection, Hela cells were refed with Dulbecco's Modified Eagle Medium with High Glucose (Invitrogen).
Day 4: Hela cells are passively lysed and luciferase activity measured using the Dual-Luciferase Reporter Assay System (Promega).
The luciferase assay was performed to test the ability of anti-miRs with the nucleoside patterns described herein to inhibit the activity of miR-21. Results were compared to a ‘mock’ treatment, in which cells received no anti-miR treatment. The experiment was repeated and results of two experimental replicates are shown in the following Table B, as the luciferase value normalized to beta-galactosidase activity.
The luciferase assay was performed as described herein to test the ability of anti-miRs in Table F to inhibit the activity of miR-21. Results were compared to a ‘mock’ treatment, in which cells received no anti-miR treatment. The experiment was repeated and results of two experimental replicates are shown in the following Table D, as fold change in luciferase value relative to the mock treatment.

[3] = tested on: collagen 1A1 and collagen 3A1 expression in kidney, unilateral ureteral obstruction (UUO) model; assay: UUO model of kidney fibrosis: kidney collagen 1A1 and collagen 3A1 expression by real-time PCR; assay type: in vivo, mice; settings: UUO, 20 mg/kg at days -3, -1, +5 (prophylactic); kidney at day 11; real-time PCR normalized to GAPDH then sham; 20 mg/kg
Protocol: Unilateral ureteral obstruction (UUO) is a well-established experimental model of renal injury leading to interstitial fibrosis, and thus is used as an experimental model that is reflective of human kidney disease. UUO is induced by surgically ligating a single ureter. As fibrosis is characterized by an increase in collagen, the presence and extent of kidney fibrosis may be determined by measuring collagen content. Both collagen 1A1 (Col 1A1) and collagen 3A1 (Col 3A1) are measured to assess collagen content. Kidney fibrosis may be visualized by staining tissue samples with picro-sirius red to detect increases in collagen content. Kidney fibrosis may also be observed by measuring the amount of hydroxyproline, which is a major component of collagen, in a sample.
The cEt-containing anti-miR-21 compounds found to be active in the luciferase assay were tested in the UUO model of kidney fibrosis. 25919 comprising 2′-MOE and 2′-fluoro modifications is known to inhibit miR-21 activity in vivo and was included as a positive control. Groups of 8 animals each were treated as follows: UUO only, UUO with PBS, or UUO with anti-miR-21 compound. Relative to the day of the UUO procedure, PBS or anti-miR-21 compound was administered at days −3, −1, and +5. Anti-miR-21 compounds were administered at a dose of 20 mg/kg. As the anti-miR compounds were administered prior to the UUO procedure, this dosing regimen is considered a prophylactic treatment. At day 11, animals were sacrificed and kidney was isolated for measurement of collagen expression. Collagen expression was measured by real-time PCR and normalized first to GAPDH and then to the sham control animals. […]

[4] = tested on: ischemia reperfusion injury (IRI) model; assay: Unilateral IRI model: collagen area fraction of kidney tissue; assay type: in vivo, mouse
Protocol: (§1) A model of ischemia reperfusion injury (IRI) is created in the mouse through unilateral or bilateral clamping of kidney arteries, which leads to tubule damage, inflammation, and fibrosis. Kidney dysfunction can occur either early (<5 days) or late (>7 days) in this model, with the early time points useful to test candidate agents for the treatment of acute kidney injury, and the later time points useful to model chronic fibrosis.
(§2) Anti-miR-21 compounds were tested in the unilateral IRI model. Unilateral IRI was induced for a period of 30 minutes. Treatment groups were as follows: sham IRI procedure; IRI with PBS administered subcutaneously; IRI with anti-miR-21 compound 25070 administered intraperitoneally at a dose of 20 mg/kg; the 2′-fluoro/2′-MOE modified anti-miR-21 25919 administered intraperitoneally at a dose of 20 mg/kg; and a 2′-fluoro/2′ modified mismatch anti-miR-21 (having three mismatches to the sequence of miR-21) 25319 administered intraperitoneally at a dose of 20 mg/kg. PBS or anti-miR compound was administered on days 5, 6, and 7 following IRI, and animals were sacrificed 14 days after IRI. As anti-miR compound is administered 5 days following the injury to the kidney, or later, when fibrosis has already occurred to some extent, this treatment regimen is considered a therapeutic regimen, rather than a prophylactic regimen.
(§3) Kidney tissue was collected for analysis of collagen 1A1 and collagen 3A1 expression (shown in Table O), and collagen area fraction (shown in Table P).
(§4) A similar study was performed with the same treatment groups and additional days of treatment. In this study, treatments were administered intraperitoneally at days 5, 6, 7, 14, and 21 following the IRI procedure Animals were sacrificed on Day 27, and kidney tissue was collected for analysis of collagen 1A1 and collagen 3A1 expression, as well as collagen area fraction.

[5] = tested on: collagen 1A1 and collagen 3A1 expression in kidney, ischemia reperfusion injury (IRI) model; assay: Unilateral ischemia reperfusion injury (IRI) model: kidney collagen 1A1 and collagen 3A1 expression; assay type: in vivo, mouse; settings: unilateral IRI
Protocol: as §1, §2, §3, §4
In order to assess the flexibility of administration of the anti-miR-21 compound 25070, the activity of the compound in the 14 day study above, where anti-miR-21 was administered at […] following the IRI procedure, to a different 14 day study where anti-miR-21 was administered intraperitoneally at days 3, 5, and 7 following the IRI procedure.

[6] = 5 μM in liver homogenate (50 mg tissue per ml), 24 hours at 37° C.
[7] = 4 nM oligonucleotide, mock transfection 50
[8] = .16 nM oligonucleotide, mock transfection 45
[9] = .8 nM oligonucleotide, mock transfection 33
[10] = 20 mg/kg intraperitoneally on days 5, 6, 7, sacrifice 14 days after IRI, 20 mg/kg
[11] = 20 mg/kg intraperitoneally on days 5, 6, 7, sacrifice 14 days after IRI, group mean
[12] = intraperitoneally on days 5, 6, 7, 14, 21, sacrifice Day 27

For “AEASATCSTGTCSTCAUSAATASAAE [Compound 25109, reference compound]”, which “geometric mean of the urinary albumin to creatinine ratio” value [1] is on record?
The value was 140 μgAlb/mgCr.

Which “compound lacking the 3'-terminal nucleoside” value [2, 6] does the source give for “AECSATCSAGTCSTGAUSAAGCSTAS (ACATCAGTCTGATAAGCTA; 2'-MOE and cEt modifications) [Compound 25923]” here?
Its value is “about 18%”.

What about the “compound present as the full-length compound” value [2, 6] of the same substance?
The value was “About 68%”.

What about the “ex vivo (liver) N %↓” value ([2]; 5 μM oligonucleotide in liver homogenate (50 mg tissue per ml), 24 hours, 37° C., decrease of full-length compound) of the same substance?
Its value is 17%.

What about the “ex vivo (liver) % N-1” value ([2]; 5 μM oligonucleotide in liver homogenate, 24 hours, 37° C., compound lacking one terminal nucleoside) of the same substance?
The value was 13%.

What about the “ex vivo (liver) % Endo” value ([2]; 5 μM oligonucleotide in liver homogenate, 24 hours, 37° C., endonuclease products) of the same substance?
Its value is 2-3%.

With “TE^MeCEAEAECSAETECSAEGETECSTEGEAEUSAEAEGECSTEAE (TCAACATCAGTCTGATAAGCTA; listed as DNA, chemistry not fully specified) [Compound 25068]” as the substance, how does the “luciferase value normalized to beta-galactosidase activity” value (“luciferase value normalized” for short) (miR-21; [7]) read?
Its value is 64.

And the “luciferase value normalized” value (miR-21; 20 nM oligonucleotide, mock transfection 47)?
The value was 86.

What about the “luciferase value normalized” value (miR-21; 100 nM oligonucleotide, mock transfection 40) of the same substance?
The value was 97.

And the “luciferase value normalized” value (miR-21; [8])?
Its value is 45.

What about the “luciferase value normalized” value (miR-21; [9]) of the same substance?
The value was 54.

And the “inhibition of miR-21 in the luciferase assay (in words)” value (miR-21)?
Its value is “demonstrated inhibition of miR-21 in a dose-dependent manner”.

What about the “Collagen 1A1 (Normalized Expression), individual animal” value [3] of the same substance?
Its value is 84.7 and 75.1 and 85.5 and 89.1 and 90.4 and 125.8 and 124.4.

And the “Collagen 3A1 (Normalized Expression), individual animal” value (from here on “Collagen 3A1 (Normalized Expression)”) [3]?
Its value is 64.8 and 56.2 and 47.4 and 76.2 and 57.0 and 63.0 and 59.6.

With “UECEAFAFCFAFUFCFAFGFUFCEUEGEAFUFAFAFGFCFUEAE (eU*eC*fA*fA*fC*fA*fU*fC*fA*fG*fU*eC*eU*eG*fA*fU*fA*fA*fG*fC*eU*eA) [Compound 25919, positive control, reference compound]” as the substance, how does the “luciferase value normalized” value (miR-21; [7]) read?
Its value is 84.

And the “luciferase value normalized” value (miR-21; [8])?
Its value is 40.

And the “luciferase value normalized” value (miR-21; [9])?
The value was 53.

And the “Collagen 1A1 (Normalized Expression), individual animal” value [3]?
The value was 150.2 and 54.2 and 84.6 and 67.7 and 78.7 and 62.2 and 89.2 and 106.2.

And the “Collagen 3A1 (Normalized Expression)” value [3]?
The value was 67.1 and 33.9 and 87.6 and 47.3 and 67.7 and 46.7 and 47.0 and 57.8.

What about the “Collagen Area Fraction (#), individual animal” value [4, 10] of the same substance?
The value was 7.093 and 8.254 and 8.095 and 8.559 and 8.681 and 6.31 and 8.416 and 9.905.

And the “Collagen Area Fraction (#), Mean” value [4, 11]?
Its value is 8.2.

What about the “Collagen Area Fraction (#), individual animal” value [4, 12] of the same substance?
The value was 11.882 and 9.755 and 9.506 and 12.654 and 20.319 and 11.551 and 12.224 and 14.468.

What about the “Collagen 1A1 (Normalized Expression), individual animal” value [5, 10] of the same substance?
Its value is 108.7 and 103.9 and 29.5 and 95.8 and 35.5 and 42.2 and 64.1 and 96.4.

And the “Collagen 3A1 (Normalized Expression)” value [5, 10]?
The value was 87.5 and 72.3 and 14.3 and 104 .4 and 27.1 and 34.9 and 56.1 and 82.8.

And the “Collagen 1A1 (Normalized Expression), Mean” value [5, 11]?
Its value is 72.0.

What about the “Collagen 1A1 (Normalized Expression), individual animal” value [5, 12] of the same substance?
The value was 75.5 and 50.4 and 49.2 and 43.2 and 41.7 and 53.6 and 44.8 and 28.0.

And the “Collagen 3A1 (Normalized Expression)” value [5, 12]?
The value was 40.2 and 43.1 and 34.5 and 35.7 and 41.1 and 36.9 and 24.5 and 22.9.
